In article PMC3634512, “Inhibition of Human Transthyretin Aggregation by Non-Steroidal Anti-Inflammatory Compounds: A Structural and Thermodynamic Analysis” (International Journal of Molecular Sciences, 2013):

Experiments:
[1] = target: T1, Transthyretin (L55P variant) (Homo sapiens, UniProt P02766, L75P); assay: ANS displacement from the hormone binding site (apparent Kd)
T1 construct: gene TTR; L55P TTR homotetramer

[2] = target: T2, Transthyretin (WT-TTR) (Homo sapiens, UniProt P02766); assay: crystal structure (soaked crystals); ANS displacement (apparent Kd); assay type: binding
T2 construct: WT-TTR homotetramer

- Kd [1]: 1.7 µM
- Kd [2]: 1.4 µM
SMILES: Cc1ccc(Nc2c(F)cccc2Cl)c(CC(=O)O)c1 [LUM, lumiracoxib]
